# Experimental data reported in ChEMBL document CHEMBL1201862, “PubChem BioAssay data set” (2004).
#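 Cultured in 96-well plates, cells were exposed to test compound for 48 hours across five concentrations. At the GI50, growth is halved.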 The source made the active and inactive calls. Rule as the data show it: active = GI50 up to about 1.1 µM and inactive = higher.
# Legend:
# Test in all cases: inhibition of tumour cell growth, NCI panel, 48 h
# UACC-257 = tested on: UACC-257
# SF-268 = tested on: SF-268
# NCI-H226 = tested on: NCI-H226
# U-251 = tested on: U-251
# UACC-62 = tested on: UACC-62
# NCI-H460 = tested on: NCI-H460
# CAKI-1 = tested on: CAKI-1
# HCT-116 = tested on: HCT-116
# SNB-75 = tested on: SNB-75
# NCI-H522 = tested on: NCI-H522
# DMS-114 = tested on: DMS-114
# HOP-92 = tested on: HOP-92
# HCC 2998 = tested on: HCC 2998
# DMS-273 = tested on: DMS-273
# 786-0 = tested on: 786-0
# HCT-15 = tested on: HCT-15
# NCI-H23 = tested on: NCI-H23
# SW-620 = tested on: SW-620
# SK-MEL-28 = tested on: SK-MEL-28
# HOP-18 = tested on: HOP-18
# A498 = tested on: A498
# HOP-62 = tested on: HOP-62
# TK-10 = tested on: TK-10
# K562 = tested on: K562
# SK-OV-3 = tested on: SK-OV-3
# M19-MEL = tested on: M19-MEL
# KM-20L2 = tested on: KM-20L2
# M14 = tested on: M14
# Malme-3M = tested on: Malme-3M
# CCRF-CEM = tested on: CCRF-CEM
# RPMI-8226 = tested on: RPMI-8226
# KM12 = tested on: KM12
# HT-29 = tested on: HT-29
# OVCAR-5 = tested on: OVCAR-5
# OVCAR-3 = tested on: OVCAR-3
# SK-MEL-5 = tested on: SK-MEL-5
# IGROV-1 = tested on: IGROV-1
# SR = tested on: SR
# EKVX = tested on: EKVX
# A549 = tested on: A549
# SF-295 = tested on: SF-295
# SNB-78 = tested on: SNB-78
# RXF 393 = tested on: RXF 393
# OVCAR-4 = tested on: OVCAR-4
# UO-31 = tested on: UO-31
# SNB-19 = tested on: SNB-19
# SK-MEL-2 = tested on: SK-MEL-2
# RXF 631 = tested on: RXF 631
# DLD-1 = tested on: DLD-1
# LOX IMVI = tested on: LOX IMVI
# SN12C = tested on: SN12C
# LXFL 529 = tested on: LXFL 529
# HL-60 = tested on: HL-60
# ACHN = tested on: ACHN
# MOLT-4 = tested on: MOLT-4
# COLO 205 = tested on: COLO 205
# OVCAR-8 = tested on: OVCAR-8
# SF-539 = tested on: SF-539
smiles,measurement,setting,value
CC12c3ccccc3C(OC=O)(c3ccccc31)C1(C)c3ccccc3C2(OC=O)c2ccccc21,GI50,UACC-257,> 100 µM (inactive)
same,GI50,SF-268,> 100 µM (inactive)
same,GI50,NCI-H226,> 100 µM (inactive)
same,GI50,U-251,95.5 µM (inactive)
same,GI50,UACC-62,> 100 µM (inactive)
same,GI50,NCI-H460,81.3 µM (inactive)
same,GI50,CAKI-1,> 100 µM (inactive)
same,GI50,HCT-116,> 100 µM (inactive)
same,GI50,SNB-75,81.1 µM (inactive)
same,GI50,NCI-H522,> 100 µM (inactive)
same,GI50,DMS-114,> 100 µM (inactive)
same,GI50,HOP-92,> 100 µM (inactive)
same,GI50,HCC 2998,> 100 µM (inactive)
same,GI50,DMS-273,75.7 µM (inactive)
same,GI50,786-0,> 100 µM (inactive)
same,GI50,HCT-15,> 100 µM
same,GI50,NCI-H23,> 100 µM (inactive)
same,GI50,SW-620,> 100 µM (inactive)
same,GI50,SK-MEL-28,> 100 µM (inactive)
same,GI50,HOP-18,> 100 µM (inactive)
same,GI50,A498,> 100 µM (inactive)
same,GI50,HOP-62,48.5 µM (inactive)
same,GI50,TK-10,> 100 µM (inactive)
same,GI50,K562,> 100 µM (inactive)
same,GI50,SK-OV-3,> 100 µM (inactive)
same,GI50,M19-MEL,> 100 µM (inactive)
same,GI50,KM-20L2,> 100 µM (inactive)
same,GI50,M14,> 100 µM (inactive)
same,GI50,Malme-3M,> 100 µM (inactive)
same,GI50,CCRF-CEM,36.6 µM (inactive)
same,GI50,RPMI-8226,> 100 µM (inactive)
same,GI50,KM12,> 100 µM (inactive)
same,GI50,HT-29,> 100 µM (inactive)
same,GI50,OVCAR-5,> 100 µM (inactive)
same,GI50,OVCAR-3,> 100 µM (inactive)
same,GI50,SK-MEL-5,> 100 µM (inactive)
same,GI50,IGROV-1,> 100 µM (inactive)
same,GI50,SR,18.4 µM (inactive)
same,GI50,EKVX,> 100 µM (inactive)
same,GI50,A549,> 100 µM (inactive)
same,GI50,SF-295,> 100 µM (inactive)
same,GI50,SNB-78,> 100 µM (inactive)
same,GI50,RXF 393,> 100 µM (inactive)
same,GI50,OVCAR-4,> 100 µM (inactive)
same,GI50,UO-31,> 100 µM (inactive)
same,GI50,SNB-19,> 100 µM (inactive)
same,GI50,SK-MEL-2,> 100 µM (inactive)
same,GI50,RXF 631,> 100 µM (inactive)
same,GI50,DLD-1,> 100 µM (inactive)
same,GI50,LOX IMVI,> 100 µM (inactive)
same,GI50,SN12C,> 100 µM (inactive)
same,GI50,LXFL 529,> 100 µM (inactive)
same,GI50,HL-60,> 100 µM (inactive)
same,GI50,ACHN,> 100 µM (inactive)
same,GI50,MOLT-4,25.2 µM (inactive)
same,GI50,COLO 205,> 100 µM (inactive)
same,GI50,OVCAR-8,> 100 µM (inactive)
O=C(O)C1Cc2[nH]cnc2CN1 (stereo not drawn),GI50,UACC-257,> 100 µM (inactive)
same,GI50,SF-268,> 100 µM (inactive)
same,GI50,NCI-H226,> 100 µM (inactive)
same,GI50,U-251,> 100 µM (inactive)
same,GI50,UACC-62,> 100 µM (inactive)
same,GI50,NCI-H460,> 100 µM (inactive)
same,GI50,CAKI-1,> 100 µM (inactive)
same,GI50,HCT-116,> 100 µM (inactive)
same,GI50,SNB-75,> 100 µM (inactive)
same,GI50,NCI-H522,> 100 µM (inactive)
same,GI50,DMS-114,> 100 µM (inactive)
same,GI50,HOP-92,> 100 µM (inactive)
same,GI50,HCC 2998,> 100 µM (inactive)
same,GI50,DMS-273,> 100 µM (inactive)
same,GI50,786-0,> 100 µM (inactive)
same,GI50,HCT-15,> 100 µM
same,GI50,NCI-H23,> 100 µM (inactive)
same,GI50,SW-620,> 100 µM (inactive)
same,GI50,SK-MEL-28,> 100 µM (inactive)
same,GI50,HOP-18,> 100 µM (inactive)
same,GI50,A498,> 100 µM (inactive)
same,GI50,TK-10,> 100 µM (inactive)
same,GI50,K562,> 100 µM (inactive)
same,GI50,SK-OV-3,> 100 µM (inactive)
same,GI50,M19-MEL,> 100 µM (inactive)
same,GI50,KM-20L2,> 100 µM (inactive)
same,GI50,M14,> 100 µM (inactive)
same,GI50,Malme-3M,> 100 µM (inactive)
same,GI50,CCRF-CEM,> 100 µM (inactive)
same,GI50,RPMI-8226,> 100 µM (inactive)
same,GI50,KM12,> 100 µM (inactive)
same,GI50,HT-29,> 100 µM (inactive)
same,GI50,OVCAR-5,> 100 µM (inactive)
same,GI50,OVCAR-3,> 100 µM (inactive)
same,GI50,SK-MEL-5,> 100 µM (inactive)
same,GI50,IGROV-1,> 100 µM (inactive)
same,GI50,SR,> 100 µM (inactive)
same,GI50,EKVX,> 100 µM (inactive)
same,GI50,A549,> 100 µM (inactive)
same,GI50,SF-295,> 100 µM (inactive)
same,GI50,SNB-78,> 100 µM (inactive)
same,GI50,OVCAR-4,> 100 µM (inactive)
same,GI50,UO-31,> 100 µM (inactive)
same,GI50,SNB-19,> 100 µM (inactive)
same,GI50,SF-539,> 100 µM (inactive)
same,GI50,SK-MEL-2,> 100 µM (inactive)
same,GI50,RXF 631,> 100 µM (inactive)
same,GI50,DLD-1,> 100 µM (inactive)
same,GI50,LOX IMVI,> 100 µM (inactive)
same,GI50,SN12C,> 100 µM (inactive)
same,GI50,LXFL 529,> 100 µM (inactive)
same,GI50,HL-60,> 100 µM (inactive)
same,GI50,ACHN,> 100 µM (inactive)
same,GI50,MOLT-4,> 100 µM (inactive)
same,GI50,COLO 205,> 100 µM (inactive)
same,GI50,OVCAR-8,> 100 µM (inactive)
